Where a name gives a salt, the structure may show the parent alone.

This note sets out measurements from patent US7368578B2, “Five-membered heterocyclic compounds” (Takeda Pharmaceutical Company Limited, priority 2002, dated 2008).

In turn, `CCOP(=O)(/C=C/c1nc(-c2ccccc2)oc1COc1ccc(OCc2nc(-c3ccccc3)oc2C)cc1)OCC` displayed a melting point of 124 to 125 °C.

`CCOP(=O)(CCc1cc(OCc2ccc(OCc3nc(-c4ccco4)oc3C)c(OC)c2)nn1-c1ccccc1)OCC` came in with a melting point of 76 to 77 °C.

As to `COc1cc(COc2nn(-c3ccccc3)cc2/C=C/P(=O)(OC)OC)ccc1OCc1nc(-c2ccco2)oc1C`, the melting point lay within 107 to 108 °C.

Regarding `CCOP(=O)(/C=C/c1cn(-c2ccccc2)nc1OCc1ccc(OCc2nc(-c3ccccc3)oc2C)cc1)OCC`, the melting point lay in the range of 109 to 110 °C.

In the case of `CCOP(=O)(/C=C/c1cn(-c2ccccc2)nc1OCc1ccc(OCc2nc(-c3ccco3)oc2C)cc1)OCC`, the melting point is 131 to 132 °C.

`CCOc1cc(COc2nn(-c3ccccc3)cc2/C=C/P(=O)(OCC)OCC)ccc1OCc1nc(-c2ccco2)oc1C`: the melting point fell in the range of 117 to 118 °C.

The molecule `CCOP(=O)(/C=C/c1cn(-c2ccccc2)nc1OCc1ccc(OCc2nc(-c3ccco3)oc2C)c(C(=O)OC)c1)OCC` came in with a melting point of 92 to 93 °C.

In turn, `CCOP(=O)(/C=C/c1cn(-c2ccccc2)nc1OCc1ccc(OCc2nc(-c3ccco3)oc2C)c(C(=O)O)c1)OCC` displayed a melting point of 169 to 170 °C.

Consider `CCOP(=O)(/C=C/c1cn(-c2ccccc2)nc1OCc1ccc(OCc2nc(-c3ccco3)oc2C)nc1)OCC`, for which the melting point lay in the range of 134 to 135 °C.

On to `CCOP(=O)(/C=C/c1cn(C)nc1OCc1ccc(OCc2nc(-c3ccco3)oc2C)c(OC)c1)OCC`, for which the melting point fell in the range of 72 to 73 °C.

`CCOP(=O)(/C=C/c1cn(CC)nc1OCc1ccc(OCc2nc(-c3ccco3)oc2C)c(OC)c1)OCC` registered a melting point of 82 to 84 °C.

`CCOP(=O)(/C=C/c1cn(CCO)nc1OCc1ccc(OCc2nc(-c3ccco3)oc2C)c(OC)c1)OCC` had a melting point of 95 to 96 °C.

For the molecule `CCOP(=O)(OCC)/C(O)=C/c1cn(-c2ccccc2)nc1OCc1ccc(OCc2nc(-c3ccco3)oc2C)c(OC)c1`, the melting point was 147 to 149 °C.

In turn, `CCOP(=O)(/C=C/C=C/c1cn(-c2ccccc2)nc1OCc1ccc(OCc2nc(-c3ccco3)oc2C)c(OC)c1)OCC` displayed a melting point of 143 to 144 °C.

Turning to `CCOP(=O)(/C=C/c1cn(-c2ccccc2)nc1OCc1ccc(OCc2nc(N3CCCCC3)sc2C)c(OC)c1)OCC`, the melting point was 95 to 96 °C.

Molecule `CCOP(=O)(/C=C/c1cn(-c2ccccc2)nc1OCc1ccc(OCc2nc(-c3ccc(C(=O)O)cc3)oc2C)c(OC)c1)OCC` had a melting point of 194 to 195 °C.

With `CCOP(=O)(/C=C/c1cn(-c2ccccc2)nc1OCc1ccc(OCc2nc(-c3ccc(C(N)=O)cc3)oc2C)c(OC)c1)OCC`, the melting point was in the range of 146 to 148 °C.

As for `CCOP(=O)(/C=C/c1cn(-c2ccccc2)nc1OCc1ccc(OCc2nc(-c3ccccc3)sc2C)c(OC)c1)OCC`, the melting point was 110 to 111 °C.

For `CCOP(=O)(/C=C/c1cn(-c2ccccc2)nc1OCc1ccc(OCc2nc(-c3ccc(C(=O)OC)cc3)oc2C)c(OC)c1)OCC`, the melting point was 129 to 130 °C.

Turning to `CCOP(=O)(/C=C/c1cn(-c2ccccc2)nc1OCc1ccc(OCc2coc(-c3ccco3)n2)c(OC)c1)OCC`, the melting point lay in the range of 96 to 97 °C.

Molecule `CCOP(=O)(/C=C/c1cn(-c2ccccc2)nc1OCc1ccc(OCc2sc(-c3ccccc3)nc2C)c(OC)c1)OCC` showed a melting point of 113 to 114 °C.

With `CCOP(=O)(/C=C/c1cn(-c2ccccc2)nc1OCc1ccc(OCc2cn(-c3ccccn3)nc2C)c(OC)c1)OCC`, the melting point is 103 to 104 °C.

Regarding `CCOP(=O)(/C=C/c1cn(-c2ccccc2)nc1OCc1ccc(OCc2nc(-c3ccccc3)cn2C)c(OC)c1)OCC`, the melting point lay within 144 to 145 °C.

On to `CCOP(=O)(/C=C/c1cn(-c2ccccc2)nc1OCc1ccc(OCc2nc(-c3cccnc3)oc2C)c(OC)c1)OCC`, for which the melting point was in the range of 128 to 129 °C.

`CCOP(=O)(/C=C/c1cn(-c2ccccc2)nc1OCc1ccc(OCc2nc(-c3cccc(O)c3)oc2C)c(OC)c1)OCC` yielded a melting point of 127 to 128 °C.

`CCOP(=O)(/C=C/c1cn(-c2ccccc2)nc1OCc1ccc(OCc2nc(-c3cccc(C(=O)O)c3)oc2C)cc1)OCC` gave a melting point of 153 to 155 °C.

`CCOP(=O)(/C=C/c1cn(-c2ccccc2)nc1OCc1ccc(OCc2nc(N3CCOCC3)sc2C)c(OC)c1)OCC` displayed a melting point of 88 to 90 °C.

For `CCOC(=O)c1ccc(-c2nc(COc3ccc(COc4nn(-c5ccccc5)cc4/C=C/P(=O)(OCC)OCC)cc3OC)c(C)o2)o1`, the melting point fell in the range of 129 to 130 °C.

Take `CCOP(=O)(/C=C/c1cn(-c2ccccc2)nc1OCc1ccc(OCc2nc(-c3ccc(OC)c(C(=O)OC)c3)oc2C)c(OC)c1)OCC`: the melting point was in the range of 144 to 145 °C.

As to `CCOP(=O)(/C=C/c1cnc(-c2ccccc2)nc1OCc1ccc(OCc2nc(-c3ccco3)oc2C)c(OC)c1)OCC`, the melting point lay within 103 to 104 °C.

`CCOP(=O)(/C=C\c1cnc(-c2ccccc2)nc1OCc1ccc(OCc2nc(-c3ccco3)oc2C)c(OC)c1)OCC` had a melting point of 154 to 155 °C.

In turn, `CCOC(=O)/C=C/c1nc(COc2ccc(COc3nn(-c4ccccc4)cc3/C=C/P(=O)(OCC)OCC)cc2OC)c(C)o1` yielded a melting point of 130 to 131 °C.

`CCOP(=O)(/C=C/c1cn(-c2ccccc2)nc1OCc1ccc(OCc2nc(-c3ccc(C)c(C(=O)OC)c3)oc2C)c(OC)c1)OCC` yielded a melting point of 121 to 122 °C.

Turning to `CCOP(=O)(/C=C/c1cn(-c2ccccc2)nc1OCc1ccc(OCc2nc(-c3ccc(C)c(C(=O)O)c3)oc2CC)c(OC)c1)OCC`, the melting point was 165 to 166 °C.

Regarding `CCOP(=O)(/C=C/c1cn(-c2ccccc2)nc1OCc1ccc(OCc2nc(N3CCC(C(=O)O)CC3)sc2C)c(OC)c1)OCC`, the melting point lay within 159 to 160 °C.

`CCOC(=O)c1ccc(-c2nc(COc3ccc(COc4nn(-c5ccccc5)cc4/C=C/P(=O)(OCC)OCC)cc3OC)c(C)o2)s1`: the melting point was 114 to 115 °C.

`CCOP(=O)(/C=C/c1cn(-c2ccccc2)nc1OCc1ccc(OCc2nc(-c3ccc(C(=O)O)s3)oc2C)c(OC)c1)OCC` returned a melting point of 165 to 166 °C.

Molecule `CCOP(=O)(/C=C/c1cn(-c2ccccc2)nc1OCc1ccc(OCc2nc(-c3cccc(C#N)c3)oc2C)c(OC)c1)OCC` yielded a melting point of 147 to 148 °C.

`CCOP(=O)(/C=C\c1cn(-c2ccccc2)nc1OCc1ccc(OCc2nc(-c3cccc(C(=O)OC)c3)oc2C)c(OC)c1)OCC` had a melting point of 112 to 113 °C.

In turn, `CCOP(=O)(/C=C\c1cn(-c2ccccc2)nc1OCc1ccc(OCc2nc(-c3cccc(C(=O)O)c3)oc2C)c(OC)c1)OCC` registered a melting point of 158 to 159 °C.

As to `CCOP(=O)(/C=C/c1cn(-c2ccccc2)nc1OCc1ccc(OCc2nc(-c3ccc(CC(=O)[O-])cc3)oc2C)c(OC)c1)OCC.[Na+]`, the melting point is 109 to 110 °C.

For `COc1cc(COc2nn(-c3ccccc3)cc2C(C[N+](=O)[O-])C[N+](=O)[O-])ccc1OCc1nc(-c2ccco2)oc1C`, the melting point was 126 to 127 °C.

`COc1cc(COc2nn(-c3ccccc3)cc2C=O)ccc1OCc1nc(-c2cccc(OS(C)(=O)=O)c2)oc1C` (as salt: methanesulfonate) [Example 228, 3-{4-[(4-{[(4-formyl-1-phenyl-1H-pyrazol-3-yl)oxy]methyl}-2-methoxyphenoxy)methyl]-5-methyl-1,3-oxazol-2-yl}phenyl methanesulfonate]: the melting point fell in the range of 146 to 148 °C.

Molecule `CCOC(=O)c1cn(Cc2ccccc2)nc1OCc1ccc(OCc2nc(-c3ccccc3)oc2C)c(OC)c1` [Example 1, ethyl 1-benzyl-3-({3-methoxy-4-[(5-methyl-2-phenyl-1,3-oxazol-4-yl)methoxy]benzyl}oxy)-1H-pyrazole-4-carboxylate] returned a melting point of 154 to 155 °C.

Turning to `COc1cc(COc2nn(Cc3ccccc3)cc2C(=O)O)ccc1OCc1nc(-c2ccccc2)oc1C` [Example 2, 1-benzyl-3-({3-methoxy-4-[(5-methyl-2-phenyl-1,3-oxazol-4-yl)methoxy]benzyl}oxy)-1H-pyrazole-4-carboxylic acid], the melting point fell in the range of 162 to 163 °C.

Regarding `COc1cc(COc2nn(Cc3ccccc3)cc2C(N)=O)ccc1OCc1nc(-c2ccccc2)oc1C` [Example 3, 1-benzyl-3-({3-methoxy-4-[(5-methyl-2-phenyl-1,3-oxazol-4-yl)methoxy]benzyl}oxy)-1H-pyrazole-4-carboxamide], the melting point was in the range of 164 to 165 °C.

As for `COc1cc(COc2nn(Cc3ccccc3)cc2CO)ccc1OCc1nc(-c2ccccc2)oc1C` [Example 4, [1-benzyl-3-({3-methoxy-4-[(5-methyl-2-phenyl-1,3-oxazol-4-yl)methoxy]benzyl}oxy)-1H-pyrazol-4-yl]methanol], the melting point was 90 to 91 °C.

The molecule `COc1cc(COc2nn(Cc3ccccc3)cc2C=O)ccc1OCc1nc(-c2ccccc2)oc1C` [Example 5, 1-benzyl-3-({3-methoxy-4-[(5-methyl-2-phenyl-1,3-oxazol-4-yl)methoxy]benzyl}oxy)-1H-pyrazole-4-carbaldehyde] displayed a melting point of 151 to 152 °C.

Regarding `CCOC(=O)c1cn(Cc2ccccc2)nc1OCc1ccc(OCc2nc(-c3ccco3)oc2C)cc1` [Example 6, ethyl 1-benzyl-3-[(4-{[2-(2-furyl)-5-methyl-1,3-oxazol-4-yl]methoxy}benzyl)oxy]-1H-pyrazole-4-carboxylate], the melting point was 101 to 102 °C.

Regarding `Cc1oc(-c2ccco2)nc1COc1ccc(COc2nn(Cc3ccccc3)cc2C(=O)O)cc1` [Example 7, 1-benzyl-3-[(4{[2-(2-furyl)-5-methyl-1,3-oxazol-4-yl]methoxy}benzyl)oxy]-1H-pyrazole-4-carboxylic acid], the melting point was 170 to 171 °C.

The molecule `Cc1oc(-c2ccco2)nc1COc1ccc(COc2nn(Cc3ccccc3)cc2C(N)=O)cc1` [Example 8, 1-benzyl-3-[(4{[2-(2-furyl)-5-methyl-1,3-oxazol-4-yl]methoxy}benzyl)oxy]-1H-pyrazole-4-carboxamide] returned a melting point of 139 to 140 °C.

On to `CC(=O)NC(=O)c1cn(Cc2ccccc2)nc1OCc1ccc(OCc2nc(-c3ccco3)oc2C)cc1` [Example 9, N-acetyl-1-benzyl-3-[(4{[2-(2-furyl)-5-methyl-1,3-oxazol-4-yl]methoxy}benzyl)oxy]-1H-pyrazole-4-carboxamide], for which the melting point fell in the range of 193 to 194 °C.

Broadly, the melting point is the temperature, or range, at which the solid turns liquid.
